Results on 3 compounds are retold here after article PMC9112550, “Optimization of the antimicrobial peptide Bac7 by deep mutational scanning” (BMC Biology, 2022).

One assay relates to E. coli TOP10. Briefly: Deep mutational scanning, site-saturation Bac7_1-23 library, intracellular self-screening with NGS. The following applies: induction vs 4.5 h, n = 3, more negative = more antimicrobial. Type of assay: cell-based. The protocol: A focused strategy was pursued to generate diversity at positions 5, 18, 19, and 20 in the Bac7_1-23 peptide. […] Degeneration was introduced by using the QuikChange technique, amplifying the pBAD plasmid containing the Bac7_1-23 gene using a mixture of 20 oligonucleotides (Additional file 1: Table S1) at a final concentration of 0.3 μM and Phusion® High-Fidelity PCR Master Mix in HF buffer. The amplification was performed using 20 cycles of 98°C for 10 s, 60°C for 15 s, and 72°C for 10 s. The PCR product was treated with the enzyme Dpn1 to remove the template plasmid and subsequently purified. The purified product was used to transform 20 μl of CloneCatcher™ Gold DH5G Electrocompetent E. coli (Genlantis, Burlington, USA) cells using electroporation.
To assess the antimicrobial activity of multiple peptides in parallel when expressed intracellularly in E. coli TOP10, previously prepared aliquots containing E. coli plasmid libraries created by either random mutagenesis or site-saturation mutagenesis were used. For both approaches, three aliquots containing approximately 500 million cells each of E. coli TOP10 harboring peptide-encoding DNA sequences on the pBAD plasmid were thawed and added to three 1-l baffled shake flasks containing 100 ml of LB medium + 100 μg ml^−1 carbenicillin. The cultures were grown for roughly 7 h at 37°C.

In the next assay the test system is bacteria. The following applies: cited from earlier work. The source says: One of the most intensively researched proline-rich AMPs is bactenecin-7 (Bac7). It is a 60 amino acid long linear peptide that was first isolated from bovine neutrophils. […] Measuring the antimicrobial activity of heavily mutated variants was valuable to determine the sequence-activity relationship of Bac7_1-23 because (i) the activity of specific amino acid res ... || Bac7PS excelled over Bac7_1-23 in terms of antimicrobial activity against clinical isolates including MDR bacteria and a decreased dependency on the SbmA transporter (Fig. 4a; Table 2). […] We mainly attribute the activity gain to the increased ability to penetrate membranes, which was accompanied by a slight increase in membrane damage at higher concentrations compared to Bac7_1-23 (Fig. 4b; Additional file 1 ...

The test system of another assay is E. coli ATCC 25922. Briefly: In vivo efficacy, murine septicemia model. The following applies: 30 mg kg^−1 IP once (1 h post-infection); 10 CD-1 mice; positive control. The method, then: CD-1 mice (7 weeks old, 27–28 g female) were used (Charles River, France). These animals were housed for a week of acclimation period before the experiment in a protected area in the ‘Centre de Zootechnie de l’Université de Bourgogne’ (Biosafety level 2 facility) and fed ad libitum according to the current recommendations by the European Institute of Health. Housing took place in rooms where a 12-h/12 h light/dark cycle is applied, the temperature ranges from 18 to 21°C and the relative humidity from 45 to 65%. The animal facility is authorized by the French authorities (Agreement N° C 21 464 04 EA). […]
For animal experiments, Bac7PS was synthesized at Genscript as acetate salt and with a purity of 92%. […] First, the maximum tolerated dose (MTD) for the peptide was determined by testing different peptide doses in 8 groups with 5 animals per group. The peptide solution was administered once by intraperitoneal (IP) injection with a volume of between 94 and 240 μl (depending on the weight of the animal and the dosage) and the animals were monitored for 2 h following the injection, then 6 to 8 h later, and then once or twice a day, depending on the clinical status, up to 5 days post-injection. […] As endpoint, the wellbeing and survival rate, on a twice daily based evaluation for up to 3 days, was monitored.

“RRIRDRPPRLPRPRPRPIKDPRP [site-saturation library peptide ID 5521]”: in the assay on E. coli TOP10, the “lfcShrink4 (shrunken log2-fold change of abundance of peptide-encoding DNA)” value is on record as -4.

For the compound “Bac7_1-15: Bac7_1-15 (RRIRPRPPRLPRPRP; Bactenecin-7; UniProt P19661 131-145, looked up, fragment)”, in the assay with bacteria, the “antimicrobial activity” value was “loss of antimicrobial activity”.

Take `O=C(O)c1cn(C2CC2)c2cc(N3CCNCC3)c(F)cc2c1=O` [ciprofloxacin]: in the assay on E. coli ATCC 25922, the survival entry is given as “survival of all mice”.
